From patent US9206206B2, “Oxidized lipid compounds and uses thereof” (Vascular Biogenics Ltd., priority 2008, dated 2015)

How the values were obtained:
[1] = test system: tyrosine phosphorylation in primary macrophages; assay: Tyrosine phosphorylation assay in primary macrophages (Western blot); assay type: cell-based, mouse; details: 10 minutes
Description: Tyrosine Phosphorylation Assay: Tyrosine phosphorylation in macrophages or bone marrow-derived cells (BMDCs) of mice was assayed. Mouse primary macrophages were isolated from the peritoneum of 7-8 week old C57BL/6 female mice following thioglycollate stimulation. […] Mouse primary bone marrow-derived cells were isolated by flushing bone marrow out of the femur and tibia of female SJL mice using cold RPMI-1640. […] Cells were then washed, resuspended in the same buffer and depleted of B and T cells on a Midi-Macs separation unit through a LD or LS column (Miltenyi Biotech). […] The medium was replaced every other day. […] Proteins with phosphorylated tyrosine were then observed by Western blot, using a monoclonal anti-phosphotyrosine antibody. Western blotting for ERK1/2 or α-tubulin was performed as a control for protein loading.

DBA/1 male mice = assay: In vivo collagen-induced arthritis (CIA) assay; parameters: species or system mouse
Description: In Vivo Collagen-Induced Arthritis (CIA) Assay:
DBA/1 male mice were immunized to induce arthritis by a collagen injection containing complete Freund's adjuvant (CFA) in the base of the tail (day 0) and a booster shot in the flank (day 21). Mice were followed for arthritis development until day 36. Administration by gavage of the tested compound and control substances began on day 22 and was carried out on a daily basis (6 times per week).
Onset of arthritis was evaluated by an arthritis clinical score.

C57BL/6 mice = assay: In vivo MOG-induced experimental autoimmune encephalomyelitis (EAE) assay; parameters: species or system mouse; details: 4 mg/kg orally, 5 consecutive days starting 5 days before immunization
Description: In Vivo Myelin Oligodendrocyte Glycoprotein (MOG)-Induced Experimental Autoimmune Encephalomyelitis (EAE) Assay:
C57BL/6 mice were orally administered with the indicated amount of the tested compound in a final volume of 200 μl for 5 consecutive days starting 5 days before immunization.
For EAE induction, mice were immunized subcutaneously with an emulsion containing 1.5 mg/ml MOG peptide 35-55 ([…]) and 2.5 mg/ml CFA (complete Freund's adjuvant), 100 μl emulsion being injected into each flank. Pertussis toxin (500 ng in 500 μl PBS) was administered intraperitoneally immediately and 48 hours after the immunization.
Onset of EAE was evaluated by a mean clinical score.

IL12/23 p40 mRNA = assay: In vitro IL12/23 p40 mRNA expression assay; assay type: cell-based, mouse; details: CD11c+ dendritic cells, 20 μg/ml, 10 μg/ml peptidoglycan, 2-4 hours following administration
Description: In Vitro IL12/23 p40 mRNA Expression Assay:
Bone marrow-derived cell cultures were prepared as described hereinabove. On days 5-6 post culturing, the cell cultures were enriched for CD11c+ dendritic cells (>90%) with mouse CD11c microbeads over MS or LS columns (Miltenyi Biotech). CD11c+ dendritic cells were stimulated for 1, 2 and 3 hours with 10 μg/ml peptidoglycan alone or in the presence of 20 μg/ml of the tested compound added 1 hour before activation. RNA was extracted from cells using RNeasy mini kit (Qiagen, Valencia, Calif.). For cDNA preparation, 1 μg of RNA was combined with Oligo dT for 10 minutes at 70° C., 1st strand buffer. Dithiothreitol and dNTP and super-script reverse transcriptase (Invitrogen, Carlsbad, Calif.) were added for 50 minutes at 42° C. and the reaction was ended by incubation for an additional 15 minutes at 70° C. All real time PCR reactions were performed using LightCycler Taqman master (Roche Diagnostics, Mannheim, Germany) and run on the LightCycler machine (Roche). Ready sets of probe with primers were used for IL12/23 p40 and GAPDH assays (Applied Biosystems, assays #Mm01288992_m1 and Mm99999915_g1, respectively) with the latter served to normalize RNA levels. 20 μg/ml CI-201 and phosphatidylcholine (PC) were used as positive and negative controls respectively.

[2] = test system: mouse peritoneal macrophages; assay: In vitro toxicity assay; assay type: cell-based; details: mouse, 24 h
Description: Thioglycollate-elicited mouse peritoneal macrophages were washed, counted and seeded (2×10^5 to 3×10^5 cells per well in 24-well plates) in triplicate wells in medium containing RPMI-1640, L-glutamine, 10% FBS and antibiotics (penicillin/streptomycin). After a recovery period of 24 hours, the tested compound (or controls) was added to the cell medium at doses of 2, 10, 20, 50, 100 or 150 μg/ml, keeping the added volume equal in all treatments by complementing the volume with solvent.
Following addition of the compounds, the cells were incubated for an additional 24 hours, after which the cells were washed, fixed with a solution of 10% methanol/10% acetic acid and stained with crystal violet (0.4% in 20% ethanol). Cell numbers were measured by determining optical density at 595 nm. Cells incubated with vehicle (PBS with 1% ethanol) were used as a control, to which cell numbers in treated samples were normalized.
Data are presented as mean±standard deviation. Statistical significance relative to vehicle-treated cells was calculated using a student's t-test, with p-values of less than 0.05 being considered as indicating statistical significance.

IL12/23 p40 = assay: In vitro IL12/23p40 production assay; assay type: cell-based, mouse; details: bone marrow-derived cells, compound 1, 2.5, 5, 10 or 20 μg/ml for 1 hour, then 10 μg/ml peptidoglycan 24 hours, ELISA
Description: In Vitro IL12/23p40 Production Assay:
Bone marrow derived cells (BMDCs) were obtained from the femur and tibia of female C57BL mice, cultured, and seeded at a concentration of 10^6 cells/ml 5-6 days post-culturing, as described hereinabove for the tyrosine phosphorylation assay.
The tested compound was then added to the cells for 1 hour at a concentration of 1, 2.5, 5, 10 or 20 μg/ml. The cells were activated for IL12/23p40 production by incubation for 24 hours with 10 μg/ml peptidoglycan (PGN). Cytokine production from the supernatant was measured by ELISA. Activated cells without the tested compound were used as the control.

## CCCCCCCCCCCCCCCCOCC(COP(=O)(O)OCCN)OCCCCC(=O)O (centres unmarked) [CI-202, 1-Hexadecyl-2-(4-carboxy)butyl-glycero-3-phosphoethanolamine]
[1]; 10 μg/ml
  phosphotyrosine levels: induction of tyrosine phosphorylation
[1]; 20 μg/ml
  phosphotyrosine levels: reduction in phosphotyrosine levels
DBA/1 male mice; 0.4 mg/kg by gavage daily from day 22
  decrease of peak arthritis clinical score relative to the control mice: 42%
DBA/1 male mice; 0.4 mg/kg by gavage daily from day 22, followed until day 36
  arthritis severity (arthritis clinical score): significantly decreased arthritis severity throughout the study period
C57BL/6 mice
  development of MOG-induced EAE (mean clinical score): delayed disease onset and reduced clinical manifestation of EAE
IL12/23 p40 mRNA
  IL12/23 p40 mRNA expression: inhibited IL12/23 p40 mRNA expression during the whole tested time period
[2]
  dose at which (significant) toxicity was detected: above 50 μg/ml
IL12/23 p40
  production of IL12/23 p40: inhibited production of IL12/23 p40 by bone marrow-derived cells in a dose-dependent manner
